According to PubChem BioAssay AID330 (DTP/NCI, 2004):
Inconclusive results and toxic doses are left out. Rule for the calls: active = survival T/C of 150% or more; inactive = T/C below 125% in these data.

Test system: P388 leukemia ip, CD2F1 mice, survival T/C
Experiment: NCI In Vivo Anticancer Drug Screen. Data for tumor model P388 Leukemia (intraperitoneal) in CD2F1 (CDF1) mice
Conditions: endpoint: median survival time, higher = longer survival
Summary of the method: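 Mice carrying the transplanted tumor received test compound or vehicle. Survival was recorded in each group, and the value is the treated-group measurement divided by that of the vehicle-treated control group.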

[1] = dose: 50.0 mg/kg/injection, schedule: Q01DX009 (ip), vehicle: saline with Tween-80
[2] = dose: 100.0 mg/kg/injection, schedule: Q01DX009 (ip), vehicle: saline with Tween-80
[3] = dose: 200.0 mg/kg/injection, schedule: Q01DX009 (ip), vehicle: saline with Tween-80
[4] = dose: 400.0 mg/kg/injection, schedule: Q01DX009 (ip), vehicle: saline with Tween-80
[5] = dose: 12.5 mg/kg/injection, schedule: Q04DX003 (ip), vehicle: saline
[6] = dose: 25.0 mg/kg/injection, schedule: Q04DX003 (ip), vehicle: saline
[7] = dose: 50.0 mg/kg/injection, schedule: Q04DX003 (ip), vehicle: saline
[8] = dose: 50.0 mg/kg/injection, schedule: Q01DX009 (ip), vehicle: saline
[9] = dose: 60.0 mg/kg/injection, schedule: Q01DX005 (ip), vehicle: saline with Tween-80
[10] = dose: 120.0 mg/kg/injection, schedule: Q01DX005 (ip), vehicle: saline with Tween-80
[11] = dose: 50.0 mg/kg/injection, schedule: Q01DX005 (ip), vehicle: Klucel (hydroxypropylcellulose) (HPC)
[12] = dose: 50.0 mg/kg/injection, schedule: Q01DX005 (ip), vehicle: saline with Tween-80

Measured: T/C

Nc1ccn(COC(CO)CO)c(=O)n1
inactive: dose: 100.0 mg/kg/injection, schedule: Q04DX002 (ip), vehicle: saline 97 % of control | dose: 200.0 mg/kg/injection, schedule: Q04DX002 (ip), vehicle: saline 98 % of control | dose: 400.0 mg/kg/injection, schedule: Q04DX002 (ip), vehicle: saline 103 % of control

O=C(O)/C(=C\c1ccncc1)c1cccc2ccccc12
inactive: [1] 101 % of control | [2] 101 % of control | [3] 111 % of control | [4] 98 % of control

CC(C)(C)N(O)c1cccc(P(=O)(c2ccccc2)c2ccccc2)c1
inactive: dose: 25.0 mg/kg/injection, schedule: Q01DX009 (ip), vehicle: saline with Tween-80 108 % of control | [1] 94 % of control | [2] 92 % of control

Cc1ccc(Cl)c(S(=O)(=O)F)c1
inactive: [3] 104 % of control | [4] 100 % of control

c1ccc(C[N+]23CCN(CC2)CC3)cc1
inactive: [5] 109 % of control | [6] 95 % of control | [7] 90 % of control

O=C(Cn1ccc(O)cc1=O)N1CCOCC1
inactive: dose: 100.0 mg/kg/injection, schedule: Q04DX003 (ip), vehicle: water 95 % of control | dose: 200.0 mg/kg/injection, schedule: Q04DX003 (ip), vehicle: water 90 % of control | dose: 400.0 mg/kg/injection, schedule: Q04DX003 (ip), vehicle: water 100 % of control

C[N+](C)(C)N=P(O)(N[N+](C)(C)C)c1ccccc1 (centres undefined)
inactive: dose: 60.0 mg/kg/injection, schedule: Q01DX005 (ip), vehicle: saline 104 % of control | dose: 120.0 mg/kg/injection, schedule: Q01DX005 (ip), vehicle: saline 104 % of control | dose: 240.0 mg/kg/injection, schedule: Q01DX005 (ip), vehicle: saline 103 % of control

CN(C)c1nc(N(C)C)n2nc(-c3ccccc3[N+](=O)[O-])nc2n1
inactive: dose: 100.0 mg/kg/injection, schedule: Q04DX003 (ip), vehicle: saline with Tween-80 104 % of control | dose: 200.0 mg/kg/injection, schedule: Q04DX003 (ip), vehicle: saline with Tween-80 96 % of control | dose: 400.0 mg/kg/injection, schedule: Q04DX003 (ip), vehicle: saline with Tween-80 95 % of control

O=C(CC(=O)C(F)(F)F)c1cccs1.O=C(CC(=O)C(F)(F)F)c1cccs1.O=C(CC(=O)C(F)(F)F)c1cccs1.[Tb]
inactive: [8] 86 % of control | dose: 100.0 mg/kg/injection, schedule: Q01DX009 (ip), vehicle: saline 86 % of control | dose: 200.0 mg/kg/injection, schedule: Q01DX009 (ip), vehicle: saline 89 % of control

CCOC(=O)C(=O)c1cn(C)c(=O)n(C)c1=O
inactive: [1] 106 % of control | [2] 104 % of control | [3] 104 % of control

CCn1c2ccccc2c2c3ncc4cccn4c3ccc21
inactive: [9] 94 % of control | [10] 98 % of control | dose: 240.0 mg/kg/injection, schedule: Q01DX005 (ip), vehicle: saline with Tween-80 106 % of control

NCCCNC(=O)c1ccccc1N
inactive: [11] 100 % of control | dose: 100.0 mg/kg/injection, schedule: Q01DX005 (ip), vehicle: Klucel (hydroxypropylcellulose) (HPC) 100 % of control | dose: 200.0 mg/kg/injection, schedule: Q01DX005 (ip), vehicle: Klucel (hydroxypropylcellulose) (HPC) 100 % of control

CCCOc1cc2c(cc1C(C)c1ccc(OCC)cc1)OCO2 (centres undefined)
inactive: dose: 12.5 mg/kg/injection, schedule: Q01DX005 (ip), vehicle: saline with Tween-80 100 % of control | dose: 25.0 mg/kg/injection, schedule: Q01DX005 (ip), vehicle: saline with Tween-80 110 % of control | [12] 115 % of control | [9] 105 % of control | [10] 113 % of control

NC(=O)c1c(Cl)cccc1Cl
inactive: [5] 101 % of control | [6] 93 % of control | [7] 99 % of control | dose: 100.0 mg/kg/injection, schedule: Q04DX003 (ip), vehicle: saline 101 % of control

O=C1CCN(C(=O)C2=CC(=O)OC2)C1
inactive: dose: 12.5 mg/kg/injection, schedule: Q01DX005 (ip), vehicle: Klucel (hydroxypropylcellulose) (HPC) 100 % of control | dose: 25.0 mg/kg/injection, schedule: Q01DX005 (ip), vehicle: Klucel (hydroxypropylcellulose) (HPC) 93 % of control | [11] 100 % of control

CCCN1CCc2cccc3c2C1Cc1ccc(O)c(O)c1-3 (centres undefined)
inactive: [1] 121 % of control | [8] 113 % of control | [3] 109 % of control

CC(=O)Oc1c2occc2cc2ccc(=O)oc12
inactive: [12] 99 % of control | dose: 100.0 mg/kg/injection, schedule: Q01DX005 (ip), vehicle: saline with Tween-80 98 % of control | dose: 200.0 mg/kg/injection, schedule: Q01DX005 (ip), vehicle: saline with Tween-80 100 % of control
